Data published in patent publication US5730876A, “Separation and purification of low molecular weight chitosan using multi-step membrane separation process” (You; Hyang-Ja, priority 1997, dated 1998).
Counter-ions that a name gives are not always drawn.

Assays:
[1] = CH3OH solubility of chitosan oligosaccharides (Table 1); type: physicochemical; settings: methanol, organic solvent or mixture
[2] = Solubility in water of chitosan oligosaccharides (Table 1); type: physicochemical
[3] = CH3OH, 20° C., read-out: CH3OH Solubility
[4] = in water, read-out: Solubility (% in water)

Row | Compound | solubility [1] [mg/mL] | solubility ([2]; water) [mg/mL] | solubility [1, 3] [mg/mL] | solubility [2, 4] [mg/mL]
1 | N[C@H]1[C@H](O[C@H]2[C@H](O)[C@@H](N)[C@H](O[C@H]3[C@H](O)[C@@H](N)[C@H](O[C@H]4[C@H](O)[C@@H](N)C(O)O[C@@H]4CO)O[C@@H]3CO)O[C@@H]2CO)O[C@H](CO)[C@@H](O)[C@@H]1O (stereo partly drawn) [Chitotetrose HCl] |  |  | 450 | 1580
2 | N[C@H]1[C@H](O[C@H]2[C@H](O)[C@@H](N)C(O)O[C@@H]2CO)O[C@H](CO)[C@@H](O)[C@@H]1O (stereo partly drawn) [Chitobiose HCl] |  |  | 54 | 1900
3 | N[C@H]1[C@H](O[C@H]2[C@H](O)[C@@H](N)[C@H](O[C@H]3[C@H](O)[C@@H](N)[C@H](O[C@H]4[C@H](O)[C@@H](N)[C@H](O[C@H]5[C@H](O)[C@@H](N)[C@H](O[C@H]6[C@H](O)[C@@H](N)C(O)O[C@@H]6CO)O[C@@H]5CO)O[C@@H]4CO)O[C@@H]3CO)O[C@@H]2CO)O[C@H](CO)[C@@H](O)[C@@H]1O (stereo partly drawn) [Chitohexose HCl] |  |  | 17 | 680

Next, values leading:

Row | solubility [1] [mg/mL] | solubility ([2]; water) [mg/mL] | solubility [1, 3] [mg/mL] | solubility [2, 4] [mg/mL] | Compound
4 | 4 | 371 |  |  | Cl.N[C@H]1C(O)O[C@H](CO)[C@@H](O)[C@@H]1O (stereo partly drawn) [D-Glucosamine HCl]
5 |  |  | 370 | 1770 | N[C@H]1[C@H](O[C@H]2[C@H](O)[C@@H](N)[C@H](O[C@H]3[C@H](O)[C@@H](N)C(O)O[C@@H]3CO)O[C@@H]2CO)O[C@H](CO)[C@@H](O)[C@@H]1O (stereo partly drawn) [Chitotriose HCl]
6 |  |  | 46 | 860 | N[C@H]1[C@H](O[C@H]2[C@H](O)[C@@H](N)[C@H](O[C@H]3[C@H](O)[C@@H](N)[C@H](O[C@H]4[C@H](O)[C@@H](N)[C@H](O[C@H]5[C@H](O)[C@@H](N)C(O)O[C@@H]5CO)O[C@@H]4CO)O[C@@H]3CO)O[C@@H]2CO)O[C@H](CO)[C@@H](O)[C@@H]1O (stereo partly drawn) [Chitopentose HCl]
